Results taken from the kinase profiling compilation of Christmann-Franck et al. (2016).

Tests used:
Assay in all cases: KINOMEscan competition binding
Conditions in all cases: compound 0.1 µM
CDKL3 (human) = CDKL3 (human) (UniProt Q8IVW4)
[1] = test system: LRRK2 (human), Q5S007 [G2019S]
FER (human) = FER (human) (UniProt P16591)
ITK (human) = ITK (human) (UniProt Q08881)
PIP4K2C (human) = PIP4K2C (human) (UniProt Q8TBX8)
NUAK2 (human) = NUAK2 (human) (UniProt Q9H093)
ULK1 (human) = ULK1 (human) (UniProt O75385)
SYK (human) = SYK (human) (UniProt P43405)
MAPK11 (human) = MAPK11 (human) (UniProt Q15759)
MAP4K1 (human) = MAP4K1 (human) (UniProt Q92918)
BMPR2 (human) = BMPR2 (human) (UniProt Q13873)
PAK3 (human) = PAK3 (human) (UniProt O75914)
CPK1 (P.falciparum) = test system: CPK1 (P.falciparum)
[2] = test system: ABL1 (human), P00519 [Y253F]
RPS6KA5 KD1 (human) = RPS6KA5 KD1 (human) (UniProt O75582)
MAP3K3 (human) = MAP3K3 (human) (UniProt Q99759)
Sequence of MAP3K3 (human) (Q99759 whole entry, looked up): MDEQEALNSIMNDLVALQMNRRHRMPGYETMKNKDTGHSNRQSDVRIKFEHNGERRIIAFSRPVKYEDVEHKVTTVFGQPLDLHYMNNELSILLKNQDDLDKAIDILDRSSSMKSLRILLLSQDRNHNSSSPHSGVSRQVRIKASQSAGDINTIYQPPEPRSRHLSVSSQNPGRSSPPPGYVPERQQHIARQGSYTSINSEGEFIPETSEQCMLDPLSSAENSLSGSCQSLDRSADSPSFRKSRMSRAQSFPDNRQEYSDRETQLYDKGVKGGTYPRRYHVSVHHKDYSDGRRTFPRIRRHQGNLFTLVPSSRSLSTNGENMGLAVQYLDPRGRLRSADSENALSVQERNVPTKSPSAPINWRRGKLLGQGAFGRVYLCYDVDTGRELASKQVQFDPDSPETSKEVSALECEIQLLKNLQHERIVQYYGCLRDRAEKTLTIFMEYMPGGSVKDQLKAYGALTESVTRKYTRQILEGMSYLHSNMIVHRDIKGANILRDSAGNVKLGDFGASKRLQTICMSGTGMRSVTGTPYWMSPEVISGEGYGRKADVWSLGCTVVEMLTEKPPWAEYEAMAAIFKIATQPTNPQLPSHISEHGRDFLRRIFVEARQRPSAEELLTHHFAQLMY

TXK (human) = TXK (human) (UniProt P42681)
PRKD1 (human) = PRKD1 (human) (UniProt Q15139)
MAP3K2 (human) = MAP3K2 (human) (UniProt Q9Y2U5)
YES1 (human) = YES1 (human) (UniProt P07947)
OXSR1 (human) = OXSR1 (human) (UniProt O95747)
Sequence of OXSR1 (human) (O95747 whole entry, looked up): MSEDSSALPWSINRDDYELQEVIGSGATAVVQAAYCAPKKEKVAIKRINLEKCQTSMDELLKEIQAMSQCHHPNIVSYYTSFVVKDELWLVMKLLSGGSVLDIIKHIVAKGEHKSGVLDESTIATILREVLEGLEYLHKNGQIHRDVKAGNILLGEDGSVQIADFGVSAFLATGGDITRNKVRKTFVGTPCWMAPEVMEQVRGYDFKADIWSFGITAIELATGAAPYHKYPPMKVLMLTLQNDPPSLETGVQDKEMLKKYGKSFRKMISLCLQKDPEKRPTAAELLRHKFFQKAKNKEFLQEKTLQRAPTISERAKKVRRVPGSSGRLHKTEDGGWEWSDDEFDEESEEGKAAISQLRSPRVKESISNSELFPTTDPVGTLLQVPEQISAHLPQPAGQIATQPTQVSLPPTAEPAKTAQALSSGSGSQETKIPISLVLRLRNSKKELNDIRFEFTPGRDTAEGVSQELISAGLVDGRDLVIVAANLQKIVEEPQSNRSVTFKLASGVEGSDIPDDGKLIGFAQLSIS

[3] = test system: KIT (human), P10721 [V559D/T670I]
ADCK3 (human) = ADCK3 (human) (UniProt Q8NI60)
PRKCE (human) = PRKCE (human) (UniProt Q02156)
MAPK7 (human) = MAPK7 (human) (UniProt Q13164)
MAST1 (human) = MAST1 (human) (UniProt Q9Y2H9)
Sequence of MAST1 (human) (Q9Y2H9 whole entry, looked up): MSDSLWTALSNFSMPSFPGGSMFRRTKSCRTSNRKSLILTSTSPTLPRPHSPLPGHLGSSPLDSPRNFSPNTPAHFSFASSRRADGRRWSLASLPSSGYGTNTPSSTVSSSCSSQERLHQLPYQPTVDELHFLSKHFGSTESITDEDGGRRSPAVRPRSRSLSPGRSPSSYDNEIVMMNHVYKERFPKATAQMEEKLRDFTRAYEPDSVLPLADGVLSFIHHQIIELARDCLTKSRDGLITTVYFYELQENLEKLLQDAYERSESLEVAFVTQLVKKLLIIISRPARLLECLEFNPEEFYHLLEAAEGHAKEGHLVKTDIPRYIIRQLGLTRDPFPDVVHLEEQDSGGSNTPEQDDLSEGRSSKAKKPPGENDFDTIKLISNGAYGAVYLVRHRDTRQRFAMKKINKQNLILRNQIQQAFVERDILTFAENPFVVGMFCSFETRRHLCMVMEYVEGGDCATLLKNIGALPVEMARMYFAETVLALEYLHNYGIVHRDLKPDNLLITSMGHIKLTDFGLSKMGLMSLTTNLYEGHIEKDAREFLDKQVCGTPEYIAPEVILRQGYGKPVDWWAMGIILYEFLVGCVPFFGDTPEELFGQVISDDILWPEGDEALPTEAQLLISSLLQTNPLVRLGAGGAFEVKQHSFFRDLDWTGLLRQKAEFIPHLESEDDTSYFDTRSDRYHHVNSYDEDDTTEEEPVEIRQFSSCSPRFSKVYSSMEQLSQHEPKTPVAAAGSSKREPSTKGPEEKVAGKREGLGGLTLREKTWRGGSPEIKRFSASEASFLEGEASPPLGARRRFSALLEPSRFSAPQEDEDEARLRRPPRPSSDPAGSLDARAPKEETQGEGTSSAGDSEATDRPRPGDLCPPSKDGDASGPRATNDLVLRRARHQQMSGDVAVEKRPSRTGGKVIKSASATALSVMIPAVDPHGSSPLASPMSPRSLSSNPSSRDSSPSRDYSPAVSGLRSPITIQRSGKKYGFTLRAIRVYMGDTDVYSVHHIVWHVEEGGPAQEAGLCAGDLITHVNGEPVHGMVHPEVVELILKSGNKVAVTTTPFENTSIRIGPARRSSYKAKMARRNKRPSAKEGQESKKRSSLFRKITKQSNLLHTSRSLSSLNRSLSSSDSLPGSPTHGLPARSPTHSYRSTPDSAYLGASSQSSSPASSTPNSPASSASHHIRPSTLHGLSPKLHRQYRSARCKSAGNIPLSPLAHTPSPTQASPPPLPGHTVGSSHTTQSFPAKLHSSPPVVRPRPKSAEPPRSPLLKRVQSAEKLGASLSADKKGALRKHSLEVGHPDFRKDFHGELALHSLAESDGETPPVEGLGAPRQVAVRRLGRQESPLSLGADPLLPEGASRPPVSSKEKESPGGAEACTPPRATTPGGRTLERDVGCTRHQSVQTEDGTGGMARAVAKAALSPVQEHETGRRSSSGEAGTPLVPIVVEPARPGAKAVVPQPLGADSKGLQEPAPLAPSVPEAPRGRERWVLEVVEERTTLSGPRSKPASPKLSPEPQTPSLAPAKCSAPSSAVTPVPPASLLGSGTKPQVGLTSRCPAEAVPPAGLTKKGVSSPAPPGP

SGK1 (human) = SGK1 (human) (UniProt O00141)
MAPK8 (human) = MAPK8 (human) (UniProt P45983)
Sequence of MAPK8 (human) (P45983 whole entry, looked up): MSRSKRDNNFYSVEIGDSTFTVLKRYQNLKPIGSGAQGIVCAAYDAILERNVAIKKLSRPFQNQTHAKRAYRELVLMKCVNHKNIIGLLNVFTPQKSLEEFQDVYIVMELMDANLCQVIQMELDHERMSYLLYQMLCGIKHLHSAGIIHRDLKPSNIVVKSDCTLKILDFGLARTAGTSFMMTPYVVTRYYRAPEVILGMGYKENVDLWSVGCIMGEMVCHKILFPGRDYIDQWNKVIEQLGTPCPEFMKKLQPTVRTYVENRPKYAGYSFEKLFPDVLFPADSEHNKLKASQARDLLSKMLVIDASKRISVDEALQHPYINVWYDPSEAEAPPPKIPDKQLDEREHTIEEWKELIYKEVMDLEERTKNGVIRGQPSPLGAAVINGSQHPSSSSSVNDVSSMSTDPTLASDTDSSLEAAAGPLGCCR

MAPKAPK2 (human) = MAPKAPK2 (human) (UniProt P49137)
Sequence of MAPKAPK2 (human) (P49137 whole entry, looked up): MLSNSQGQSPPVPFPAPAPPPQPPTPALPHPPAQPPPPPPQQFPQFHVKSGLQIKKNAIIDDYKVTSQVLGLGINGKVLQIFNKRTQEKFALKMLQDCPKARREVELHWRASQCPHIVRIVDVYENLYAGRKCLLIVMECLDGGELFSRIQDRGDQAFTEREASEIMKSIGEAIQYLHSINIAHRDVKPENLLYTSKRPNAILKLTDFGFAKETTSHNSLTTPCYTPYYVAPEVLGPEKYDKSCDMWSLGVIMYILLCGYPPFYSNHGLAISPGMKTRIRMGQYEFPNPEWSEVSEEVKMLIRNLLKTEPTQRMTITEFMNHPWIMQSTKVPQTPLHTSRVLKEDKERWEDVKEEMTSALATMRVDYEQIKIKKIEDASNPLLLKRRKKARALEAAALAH

ERN1 (human) = ERN1 (human) (UniProt O75460)
[4] = test system: FLT3 (human), P36888 [N841I]
WNK1 (human) = WNK1 (human) (UniProt Q9H4A3)
STK16 (human) = STK16 (human) (UniProt O75716)
SRPK2 (human) = SRPK2 (human) (UniProt P78362)

Sequence of NUAK2 (human) (Q9H093 whole entry, looked up): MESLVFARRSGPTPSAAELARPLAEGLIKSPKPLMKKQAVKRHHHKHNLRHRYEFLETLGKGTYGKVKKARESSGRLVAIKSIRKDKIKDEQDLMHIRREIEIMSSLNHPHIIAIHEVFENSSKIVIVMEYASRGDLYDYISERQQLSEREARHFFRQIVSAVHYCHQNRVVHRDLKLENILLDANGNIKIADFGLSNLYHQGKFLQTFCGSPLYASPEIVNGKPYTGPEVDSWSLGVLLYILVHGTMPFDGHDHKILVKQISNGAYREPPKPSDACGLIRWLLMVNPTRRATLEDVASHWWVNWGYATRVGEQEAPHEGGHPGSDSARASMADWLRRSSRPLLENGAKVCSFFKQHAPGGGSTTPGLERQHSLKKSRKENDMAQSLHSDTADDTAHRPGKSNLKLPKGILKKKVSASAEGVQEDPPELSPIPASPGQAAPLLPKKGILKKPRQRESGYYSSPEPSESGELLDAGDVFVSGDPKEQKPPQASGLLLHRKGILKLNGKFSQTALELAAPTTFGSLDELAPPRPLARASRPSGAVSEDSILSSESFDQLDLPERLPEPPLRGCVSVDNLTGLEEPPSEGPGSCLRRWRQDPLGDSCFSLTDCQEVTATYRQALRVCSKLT
Sequence of FER (human) (P16591 whole entry, looked up): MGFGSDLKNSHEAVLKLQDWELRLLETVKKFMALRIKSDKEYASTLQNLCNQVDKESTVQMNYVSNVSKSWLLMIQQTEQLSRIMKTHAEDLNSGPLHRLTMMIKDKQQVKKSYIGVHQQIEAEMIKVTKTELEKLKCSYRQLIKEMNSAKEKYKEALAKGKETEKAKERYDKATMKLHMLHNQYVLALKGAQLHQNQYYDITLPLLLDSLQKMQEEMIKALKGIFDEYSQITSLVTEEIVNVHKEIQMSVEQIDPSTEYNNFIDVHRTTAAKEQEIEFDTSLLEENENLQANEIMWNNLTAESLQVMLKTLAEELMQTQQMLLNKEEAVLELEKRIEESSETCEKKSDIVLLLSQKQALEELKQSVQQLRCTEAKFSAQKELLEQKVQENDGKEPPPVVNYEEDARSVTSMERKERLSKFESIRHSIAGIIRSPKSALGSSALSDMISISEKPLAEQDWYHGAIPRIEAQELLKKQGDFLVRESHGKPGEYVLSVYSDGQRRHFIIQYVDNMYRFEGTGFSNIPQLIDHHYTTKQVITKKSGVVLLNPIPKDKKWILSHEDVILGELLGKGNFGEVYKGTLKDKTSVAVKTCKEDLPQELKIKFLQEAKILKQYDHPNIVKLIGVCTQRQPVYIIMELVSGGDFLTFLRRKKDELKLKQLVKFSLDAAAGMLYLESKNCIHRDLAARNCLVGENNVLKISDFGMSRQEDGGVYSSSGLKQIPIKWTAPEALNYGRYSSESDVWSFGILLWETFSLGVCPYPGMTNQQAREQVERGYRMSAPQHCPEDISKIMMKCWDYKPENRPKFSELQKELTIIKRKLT

## CCc1ccc(C(=O)Nc2cc(CN3CCN(C)CC3)cc(C(F)(F)F)c2)cc1C#Cc1cnc2ccnn2c1
CDKL3 (human)
  kinase still bound, per cent of control: 56%
[1]
  kinase still bound, per cent of control: 94%
FER (human)
  kinase still bound, per cent of control: 70%
ITK (human)
  kinase still bound, per cent of control: 100%
PIP4K2C (human)
  kinase still bound, per cent of control: 100%
NUAK2 (human)
  kinase still bound, per cent of control: 100%
ULK1 (human)
  kinase still bound, per cent of control: 100%
SYK (human)
  kinase still bound, per cent of control: 83%
MAPK11 (human)
  kinase still bound, per cent of control: 100%
MAP4K1 (human)
  kinase still bound, per cent of control: 100%
BMPR2 (human)
  kinase still bound, per cent of control: 90%
PAK3 (human)
  kinase still bound, per cent of control: 41%
CPK1 (P.falciparum)
  kinase still bound, per cent of control: 100%
[2]
  kinase still bound, per cent of control: 100%
RPS6KA5 KD1 (human)
  kinase still bound, per cent of control: 93%
MAP3K3 (human)
  kinase still bound, per cent of control: 100%
TXK (human)
  kinase still bound, per cent of control: 79%
PRKD1 (human)
  kinase still bound, per cent of control: 100%
MAP3K2 (human)
  kinase still bound, per cent of control: 100%
YES1 (human)
  kinase still bound, per cent of control: 70%
OXSR1 (human)
  kinase still bound, per cent of control: 100%
[3]
  kinase still bound, per cent of control: 96%
ADCK3 (human)
  kinase still bound, per cent of control: 90%
PRKCE (human)
  kinase still bound, per cent of control: 94%
MAPK7 (human)
  kinase still bound, per cent of control: 100%
MAST1 (human)
  kinase still bound, per cent of control: 100%
SGK1 (human)
  kinase still bound, per cent of control: 93%
MAPK8 (human)
  kinase still bound, per cent of control: 100%
MAPKAPK2 (human)
  kinase still bound, per cent of control: 100%
ERN1 (human)
  kinase still bound, per cent of control: 100%
[4]
  kinase still bound, per cent of control: 100%
WNK1 (human)
  kinase still bound, per cent of control: 100%
STK16 (human)
  kinase still bound, per cent of control: 71%
SRPK2 (human)
  kinase still bound, per cent of control: 75%
